{
  "source": "patent EP1159261B1",
  "about": "“ANTIZYME MODULATORS AND THEIR USE” (ORIDIGM CORPORATION, priority 1999, dated 2000)",
  "key": {"[1]": {"system": "human antizyme sequence", "assay": "in vitro antizyme dual luciferase frameshifting assay (in vitro translation in reticulocyte lysate)", "type": "biochemical", "conditions": "for In vitro antizyme induction / antizyme induction: result in words; for antizyme induction: sentence does not say in vitro or in vivo, context is the in vitro assay", "text": "As one skilled in the art would appreciate, there are a multitude of means to test the agmatine and polyamine analogs of the invention for the ability to induce a frameshift. […] This assay allows one to measure the efficiency of translational frameshifting on the human antizyme sequence. Briefly, two variations of the human antizyme sequence were cloned between the renilla (5') and firefly (3') luciferase reporter genes in pRL-SV40 (Promega) plasmids. One plasmid contained the wild type antizyme sequence which requires a +1 frameshift for complete translation, the other plasmid contained modified, in-frame antizyme (control) sequences. These plasmids are utilized to transiently or stably transfect human cell lines with either the wild type or in-frame antizyme sequence-containing plasmids. Renilla and firefly luciferase activity in each assay (with cells containing one of the two plasmids) is measured to account for polymerase fall-off or translational efficiency in the presence or absence of the agmatine and polyamine analogs of the invention. That ratio is used to normalize the firefly luciferase activity seen in the wild type sequence, compared to the in-frame control sequence.\n(§1) In vitro assays of the effect of agmatine and polyamine analogs on antizyme frameshifting were performed as follows. Linearized plasmids containing the wild type and in-frame antizyme sequence were transcribed in vitro, followed by in vitro translation in reticulocyte lysate, with and without agmatine and polyamine analogs. Luminescence was measured using the Dual-Luciferase™ reporter assay (Promega).\nThis assay allows one to measure the efficiency of translational frameshifting on the human antizyme sequence. Briefly, two variations of the human antizyme sequence were cloned between the renilla (5') and firefly (3') luciferase reporter genes in pRL-SV40 (Promega) plasmids. One plasmid contained the wild type antizyme sequence which requires a +1 frameshift for complete translation, the other plasmid contained modified, in-frame antizyme (control) sequences. These plasmids are utilized to transiently or stably transfect human cell lines with either the wild type or in-frame antizyme sequence-containing plasmids. Renilla and firefly luciferase activity in each assay (with cells containing one of the two plasmids) is measured to account for polymerase fall-off or translational efficiency in the presence or absence of the analogs of the invention. That ratio is used to normalize the firefly luciferase activity seen in the wild type sequence, compared to the in-frame control sequence.\nas §1, with “agmatine” for “agmatine and polyamine”, “agmatine analogs .” for “agmatine and polyamine analogs.”"}, "[2]": {"system": "breast carcinoma cell line, MDA-MB-231", "assay": "cell growth inhibition, seven days, MTS/PMS dye assay", "type": "cell-based", "conditions": "for IC50: Homo sapiens", "method": "The IC50 values in the above Table as well as Tables 1B and 1C below were determined with the breast carcinoma cell line, MDA-MB-231.\nCells were plated in 96-well plates such that they would be in log growth for the duration of the assay. The day after plating, drugs were added to the cells and they were grown for seven days. Cell growth was measured by MTS/PMS dye assay (Promega). The assay was done in the presence of 1 mM aminoguanidine to inhibit amine oxidases from the serum in the culture media and 1 µM spermidine to insure that any growth inhibition was not the result of depletion of external polyamines from the media. The assay was also performed over seven days because this allows for the greatest dynamic range in cell growth due to the mechanism of concomitant inhibition of polyamine biosynthesis and transport. Cells need to divide several times before the intracellular level of polyamines begin to decrease to growth inhibitory levels.\n(§2) For example, compounds ORI 1041 and ORI 1093 were evaluated as polyamine transport inhibitors and for growth inhibition in a cell based (MDA-MB-231 breast cancer cell line) assay with and without DFMO."}, "[3]": {"system": "polyamine transporter", "assay": "polyamine transport assay (^3H-spermidine uptake into cells)", "type": "cell-based", "conditions": "result in words", "method": "Cells in log growth are pre-incubated with an agmatine analog followed by addition of ^3H-spermidine. […] The cells were then washed three times with cold PBS, lysed with 0.1% SDS, and the amount of polyamine incorporation into the cells was determined by scintillation counting of the cell lysates. To determine a Ki, four substrate concentrations and five inhibitor concentrations and a control were tested. The Ki was determined by a non-linear fit to the Michaelis-Menten equation.\nas §2"}, "[4]": {"system": "human antizyme sequence", "assay": "in vivo (cellular) antizyme dual luciferase frameshifting assay in transfected cell lines", "type": "cell-based", "conditions": "for In vivo (cellular) antizyme induction: result in words", "method": "As one skilled in the art would appreciate, there are a multitude of means to test the agmatine and polyamine analogs of the invention for the ability to induce a frameshift. For example, Satriano et al. (J. Biol. Chem., 273:15313-15316 (1998)) and the references cited therein utilized an in vitro reticulocyte system. The agmatine and polyamine analogs of the invention were tested in vitro (such as by test tube) and in vivo (such as by cell culture) using the antizyme dual luciferase frameshifting assay as described by Grentzmann, G., et al in RNA 4:479-486, 1998. This assay allows one to measure the efficiency of translational frameshifting on the human antizyme sequence. Briefly, two variations of the human antizyme sequence were cloned between the renilla (5') and firefly (3') luciferase reporter genes in pRL-SV40 (Promega) plasmids. One plasmid contained the wild type antizyme sequence which requires a +1 frameshift for complete translation, the other plasmid contained modified, in-frame antizyme (control) sequences. These plasmids are utilized to transiently or stably transfect human cell lines with either the wild type or in-frame antizyme sequence-containing plasmids. Renilla and firefly luciferase activity in each assay (with cells containing one of the two plasmids) is measured to account for polymerase fall-off or translational efficiency in the presence or absence of the agmatine and polyamine analogs of the invention. That ratio is used to normalize the firefly luciferase activity seen in the wild type sequence, compared to the in-frame control sequence. […] Agmatine and polyamine analogs of the invention were tested in vitro (such as by test tube) and in vivo (such as with cell lines) using the antizyme dual luciferase frameshifting assay as described by Grentzmann, G., et al in RNA 4:479-486, 1998. This assay allows one to measure the efficiency of translational frameshifting on the human antizyme sequence. Briefly, two variations of the human antizyme sequence were cloned between the renilla (5') and firefly (3') luciferase reporter genes in pRL-SV40 (Promega) plasmids. One plasmid contained the wild type antizyme sequence which requires a +1 frameshift for complete translation, the other plasmid contained modified, in-frame antizyme (control) sequences. These plasmids are utilized to transiently or stably transfect human cell lines with either the wild type or in-frame antizyme sequence-containing plasmids. Renilla and firefly luciferase activity in each assay (with cells containing one of the two plasmids) is measured to account for polymerase fall-off or translational efficiency in the presence or absence of the analogs of the invention. That ratio is used to normalize the firefly luciferase activity seen in the wild type sequence, compared to the in-frame control sequence."}, "[5]": {"conditions": "MDA-MB-231, with DFMO, unit inferred, read-out: Cell Growth IC50+DFMO"}, "[6]": {"conditions": "MDA-MB-231, without DFMO, unit printed in b172 only, read-out: Cell Growth IC50"}},
  "note": "Entries after “also recorded” stand apart in the source; their conditions may differ. Like-named read-outs stand apart in the source and are kept apart here.",
  "data": [
    {"compound": "NCCCNCCCCNCCCNS(=O)(=O)c1ccc2oc3ccccc3c2c1", "note": "[Analog 1041]", "values": [
      {"measurement": "In vitro", "setting": "[1]; antizyme induction at 0.06 mM", "result": 15, "unit": "% at 0.06 mM"},
      {"measurement": "In vitro antizyme induction", "setting": "[1]", "result": "demonstrated in vitro induction activity; also recorded: dramatic increase in in vitro induction activity in comparison with spermidine"},
      {"measurement": "IC50", "setting": "[2]; [5]", "result": 53, "unit": "µM"},
      {"measurement": "IC50", "setting": "[2]; [6]", "result": 50, "unit": "µM"},
      {"measurement": "IC50", "setting": "[2]; MDA-MB-231, Tables 1A and 1B, unit inferred, read-out: IC50", "result": 12, "unit": "µM"},
      {"measurement": "R value (R= IC50/ IC50+DFMO)", "setting": "[2]; MDA-MB-231", "result": "~1"},
      {"measurement": "polyamine transport inhibition", "setting": "[3]", "result": "fairly good transport inhibitor"}
    ]},
    {"compound": "CC(=O)NCCCNCCCCNCCCN", "note": "[Analog 1110, N^1-acetylspermine]", "values": [
      {"measurement": "In vivo (cellular)", "setting": "[4]; antizyme induction @ 10 mM", "result": 30, "unit": "% @ 10 mM"},
      {"measurement": "In vivo (cellular) antizyme induction", "setting": "[4]", "result": "demonstrated antizyme inducing activity"},
      {"measurement": "In vivo (cellular) antizyme induction", "setting": "[4]; listed as ORI 1110", "result": "diminished ability to induce the expression of active antizyme in comparison with spermidine"}
    ]},
    {"compound": "NCCCCNCCCCNCCCCN", "note": "[Analog 1190]", "values": [
      {"measurement": "In vivo (cellular) antizyme induction", "setting": "[4]", "result": "negative; also recorded: no ability to induce antizyme"}
    ]},
    {"compound": "NCCCNCc1ccc(CNCCCN)cc1", "note": "[Analog 1283]", "values": [
      {"measurement": "In vivo (cellular) antizyme induction", "setting": "[4]", "result": "positive; also recorded: increase in induction activity"}
    ]},
    {"compound": "N=C(N)NOCC[C@H](N)C(=O)O", "note": "[Analog 1284, L-canavanine]", "values": [
      {"measurement": "In vitro antizyme induction", "setting": "[1]", "result": "no activity"}
    ]},
    {"compound": "NCCCON", "note": "[Analog 1291, AOPA]", "values": [
      {"measurement": "antizyme induction", "setting": "[1]", "result": "no induction activity is observed"}
    ]},
    {"compound": "NCCCCON", "note": "[Analog 1292, AOBA]", "values": [
      {"measurement": "antizyme induction", "setting": "[1]", "result": "no induction activity is observed"}
    ]},
    {"compound": "O=S(=O)(NCCCNCCCCNCCCNS(=O)(=O)c1ccc2oc3ccccc3c2c1)c1ccc2oc3ccccc3c2c1", "note": "[Analog 1293]", "values": [
      {"measurement": "IC50", "setting": "[2]; [5]", "result": 2, "unit": "µM"},
      {"measurement": "IC50", "setting": "[2]; [6]", "result": 2, "unit": "µM"},
      {"measurement": "R value (R= IC50/ IC50+DFMO)", "setting": "[2]; MDA-MB-231", "result": "~1"},
      {"measurement": "polyamine transport inhibition", "setting": "[3]", "result": "fairly poor transport inhibitor"}
    ]},
    {"compound": "CC(N)CCC(C)N", "note": "(stereo not shown) [Analog 1351, 2,5-diaminohexane]", "values": [
      {"measurement": "In vitro antizyme induction", "setting": "[1]", "result": "induces antizyme"}
    ]},
    {"compound": "NCCCC[C@H](N)C(=O)O", "note": "[L-lysine, reference compound]", "values": [
      {"measurement": "antizyme induction", "setting": "[1]", "result": "does not induce antizyme activation"}
    ]},
    {"compound": "NCCCCNCCCN", "note": "[Spermidine, reference compound]", "values": [
      {"measurement": "In vitro", "setting": "[1]; antizyme induction @ 1 mM", "result": 22, "unit": "% @ 1 mM"},
      {"measurement": "In vivo (cellular)", "setting": "[4]; antizyme induction @ 16 mM", "result": 35, "unit": "% @ 16 mM"}
    ]},
    {"compound": "NCCCCCN", "note": "[cadaverine, reference compound]", "values": [
      {"measurement": "In vitro antizyme induction", "setting": "[1]", "result": "no induction was observed; also recorded: no in vitro activity"},
      {"measurement": "In vivo (cellular) antizyme induction", "setting": "[4]", "result": "only slightly less active than putrescine; also recorded: significant in vivo activity"}
    ]},
    {"compound": "NCCCNCCCCNCCCN", "note": "[spermine, reference compound]", "values": [
      {"measurement": "In vitro antizyme induction", "setting": "[1]", "result": "induced antizyme"},
      {"measurement": "In vivo (cellular) antizyme induction", "setting": "[4]", "result": "induced antizyme"}
    ]},
    {"compound": "L-Lys-spermine conjugate [Analog 1202]", "values": [
      {"measurement": "In vitro antizyme induction", "setting": "[1]", "result": "diminished ability to induce antizyme"},
      {"measurement": "In vivo (cellular) antizyme induction", "setting": "[4]", "result": "positive; also recorded: diminished ability to induce antizyme"}
    ]},
    {"compound": "L-Val-spermine [Analog 1157]", "values": [
      {"measurement": "In vitro antizyme induction", "setting": "[1]", "result": "retained the ability to induce antizyme"}
    ]},
    {"compound": "α-dimethylspermine [Analog 1383]", "values": [
      {"measurement": "In vivo (cellular) antizyme induction", "setting": "[4]", "result": "positive; also recorded: to the same extent as spermine"}
    ]}
  ]
}
